Values joined by “and” are separate entries in the source; they are usually repeats but may differ in a detail not shown here. Equal values may be shown once. Toxic doses and inconclusive results are not listed. The calls were made as follows: active = survival T/C of 150% or more; inactive = T/C below 125% in these data.
Tested on: P388 leukemia ip, CD2F1 mice, survival T/C
Experiment: NCI In Vivo Anticancer Drug Screen. Data for tumor model P388 Leukemia (intraperitoneal) in CD2F1 (CDF1) mice
Conditions: endpoint: median survival time, higher = longer survival
Outline: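 Mice carrying the transplanted tumor received test compound or vehicle. Survival was recorded in each group, and the value is the treated-group measurement divided by that of the vehicle-treated control group.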

[1] = dose: 100.0 mg/kg/injection, schedule: Q01DX005 (ip), vehicle: saline with Tween-80
[2] = dose: 200.0 mg/kg/injection, schedule: Q01DX005 (ip), vehicle: saline with Tween-80
[3] = dose: 50.0 mg/kg/injection, schedule: Q01DX009 (ip), vehicle: Klucel (hydroxypropylcellulose) (HPC)
[4] = dose: 100.0 mg/kg/injection, schedule: Q01DX009 (ip), vehicle: Klucel (hydroxypropylcellulose) (HPC)
[5] = dose: 200.0 mg/kg/injection, schedule: Q01DX009 (ip), vehicle: Klucel (hydroxypropylcellulose) (HPC)
[6] = dose: 60.0 mg/kg/injection, schedule: Q01DX005 (ip), vehicle: saline with Tween-80
[7] = dose: 120.0 mg/kg/injection, schedule: Q01DX005 (ip), vehicle: saline with Tween-80
[8] = dose: 240.0 mg/kg/injection, schedule: Q01DX005 (ip), vehicle: saline with Tween-80
[9] = dose: 50.0 mg/kg/injection, schedule: Q01DX005 (ip), vehicle: saline with Tween-80

Measured: T/C

CC(=O)OC1OC(CO)C(OCc2ccccc2)C(OCc2ccccc2)C1OC(C)=O (stereo not drawn)
inactive: dose: 4.0 mg/kg/injection, schedule: Q01DX009 (ip), vehicle: other 116 % of control | dose: 8.0 mg/kg/injection, schedule: Q01DX009 (ip), vehicle: other 104 % of control | dose: 16.0 mg/kg/injection, schedule: Q01DX009 (ip), vehicle: other 100 % of control | dose: 32.0 mg/kg/injection, schedule: Q01DX009 (ip), vehicle: other 92 % of control | dose: 50.0 mg/kg/injection, schedule: Q01DX009 (ip), vehicle: other 99 % of control | dose: 64.0 mg/kg/injection, schedule: Q01DX009 (ip), vehicle: other 98 % of control | dose: 100.0 mg/kg/injection, schedule: Q01DX009 (ip), vehicle: other 99 % of control | dose: 200.0 mg/kg/injection, schedule: Q01DX009 (ip), vehicle: other 99 % of control | dose: 400.0 mg/kg/injection, schedule: Q01DX009 (ip), vehicle: other 99 % of control

C/C=C(/C)C(=O)OC1CC(C)=C2C(=O)C=C(C)C2C2OC(=O)C(C)(OC(=O)/C(C)=C\C)C12 (stereo not drawn)
inactive: dose: 4.0 mg/kg/injection, schedule: Q01DX009 (ip), vehicle: Klucel (hydroxypropylcellulose) (HPC) 102 % of control | dose: 8.0 mg/kg/injection, schedule: Q01DX009 (ip), vehicle: Klucel (hydroxypropylcellulose) (HPC) 102 % of control | dose: 16.0 mg/kg/injection, schedule: Q01DX009 (ip), vehicle: Klucel (hydroxypropylcellulose) (HPC) 96 % of control | dose: 32.0 mg/kg/injection, schedule: Q01DX009 (ip), vehicle: Klucel (hydroxypropylcellulose) (HPC) 93 % of control

Cc1c2c(cc3c4ccccc4n(C)c13)C(=O)OC2=O
inactive: dose: 0.78 mg/kg/injection, schedule: Q01DX005 (ip), vehicle: Klucel (hydroxypropylcellulose) (HPC) 99 % of control | dose: 1.56 mg/kg/injection, schedule: Q01DX005 (ip), vehicle: Klucel (hydroxypropylcellulose) (HPC) 93 % of control | dose: 3.12 mg/kg/injection, schedule: Q01DX005 (ip), vehicle: Klucel (hydroxypropylcellulose) (HPC) 89 % of control | dose: 6.25 mg/kg/injection, schedule: Q01DX005 (ip), vehicle: Klucel (hydroxypropylcellulose) (HPC) 89 % of control | dose: 50.0 mg/kg/injection, schedule: Q01DX005 (ip), vehicle: Klucel (hydroxypropylcellulose) (HPC) 89 % of control | dose: 100.0 mg/kg/injection, schedule: Q01DX005 (ip), vehicle: Klucel (hydroxypropylcellulose) (HPC) 88 % of control | dose: 200.0 mg/kg/injection, schedule: Q01DX005 (ip), vehicle: Klucel (hydroxypropylcellulose) (HPC) 97 % of control

CN(N=O)C(=O)NCCNC(=O)C1OC(n2cnc3c(=O)[nH]cnc32)C(O)C1O (stereo not drawn)
inactive: [1] 106 % of control | [2] 109 % of control | dose: 400.0 mg/kg/injection, schedule: Q01DX005 (ip), vehicle: saline with Tween-80 115 % of control

CCOc1nc(OC)c(Cc2c(OC)nc(OCC)c3c2CCCC3)c2c1CCCC2
inactive: dose: 47.5 mg/kg/injection, schedule: Q01DX005 (ip), vehicle: saline + Tween-80 + alcohol 102 % of control | dose: 95.0 mg/kg/injection, schedule: Q01DX005 (ip), vehicle: saline + Tween-80 + alcohol 90 % of control | dose: 190.0 mg/kg/injection, schedule: Q01DX005 (ip), vehicle: saline + Tween-80 + alcohol 87 % of control

NC1C(N)C(N)C1N (stereo not drawn)
inactive: dose: 12.5 mg/kg/injection, schedule: Q01DX005 (ip), vehicle: water 102 % of control | dose: 25.0 mg/kg/injection, schedule: Q01DX005 (ip), vehicle: water 102 % of control | dose: 50.0 mg/kg/injection, schedule: Q01DX005 (ip), vehicle: water 102 % of control | dose: 100.0 mg/kg/injection, schedule: Q01DX005 (ip), vehicle: water 98 % of control | dose: 200.0 mg/kg/injection, schedule: Q01DX005 (ip), vehicle: water 94 % of control

NC(N)=NS(=O)(=O)c1ccc(N=CC2C(=O)N(c3ccccc3)N(c3ccccc3)C2=O)cc1
inactive: [3] 92 % of control | [4] 92 % of control | [5] 100 % of control

CCOC(=O)C(=O)/C=C/[C@H]1[C@H](C)CC=C[C@H]1NC(=O)OCc1ccccc1
inactive: [6] 103 % of control | [7] 99 % of control | [8] 97 % of control

O=C(Nc1ccccc1)NC1CCCCCC1
inactive: dose: 50.0 mg/kg/injection, schedule: Q01DX009 (ip), vehicle: saline 93 % of control | dose: 100.0 mg/kg/injection, schedule: Q01DX009 (ip), vehicle: saline 98 % of control | dose: 200.0 mg/kg/injection, schedule: Q01DX009 (ip), vehicle: saline 87 % of control

CC(C)(C)N1COCO[C@H]2CCC[C@@H]21
inactive: dose: 25.0 mg/kg/injection, schedule: Q04DX002 (ip), vehicle: Klucel (hydroxypropylcellulose) (HPC) 100 % of control | dose: 50.0 mg/kg/injection, schedule: Q04DX002 (ip), vehicle: Klucel (hydroxypropylcellulose) (HPC) 102 % of control | dose: 100.0 mg/kg/injection, schedule: Q04DX002 (ip), vehicle: Klucel (hydroxypropylcellulose) (HPC) 114 % of control | dose: 200.0 mg/kg/injection, schedule: Q04DX002 (ip), vehicle: Klucel (hydroxypropylcellulose) (HPC) 100 % of control and 123 % of control

c1ccc(C(NC2CC3CCC2C3)c2ccccc2)cc1 (stereo not drawn)
inactive: dose: 37.5 mg/kg/injection, schedule: Q01DX009 (ip), vehicle: saline with Tween-80 100 % of control | dose: 75.0 mg/kg/injection, schedule: Q01DX009 (ip), vehicle: saline with Tween-80 95 % of control

COc1c(C(C)(C)C)cc(C(C)(C)C)c(OC)c1Br
inactive: [3] 100 % of control | [4] 94 % of control | [5] 87 % of control

Cc1ccc(S(=O)(=O)N/N=C/c2ccoc2)cc1
inactive: dose: 12.5 mg/kg/injection, schedule: Q01DX005 (ip), vehicle: distilled water + Tween-80 100 % of control | dose: 25.0 mg/kg/injection, schedule: Q01DX005 (ip), vehicle: distilled water + Tween-80 102 % of control | dose: 50.0 mg/kg/injection, schedule: Q01DX005 (ip), vehicle: distilled water + Tween-80 93 % of control | dose: 100.0 mg/kg/injection, schedule: Q01DX005 (ip), vehicle: distilled water + Tween-80 102 % of control | dose: 200.0 mg/kg/injection, schedule: Q01DX005 (ip), vehicle: distilled water + Tween-80 100 % of control

COc1cccc(N2C(=O)CSC2=S)c1
inactive: dose: 100.0 mg/kg/injection, schedule: Q04DX003 (ip), vehicle: saline with Tween-80 95 % of control | dose: 200.0 mg/kg/injection, schedule: Q04DX003 (ip), vehicle: saline with Tween-80 100 % of control | dose: 400.0 mg/kg/injection, schedule: Q04DX003 (ip), vehicle: saline with Tween-80 90 % of control

Cc1ccc2c(c1)-c1oc(=O)c(C(N)=O)cc1C(C)O2 (stereo not drawn)
inactive: [6] 92 % of control | [7] 89 % of control | [8] 87 % of control

CC(C(=O)N1c2ccccc2Sc2ccccc21)[N+](C)(C)C (stereo not drawn)
inactive: dose: 12.5 mg/kg/injection, schedule: Q01DX009 (ip), vehicle: saline with Tween-80 110 % of control | dose: 25.0 mg/kg/injection, schedule: Q01DX009 (ip), vehicle: saline with Tween-80 110 % of control | dose: 50.0 mg/kg/injection, schedule: Q01DX009 (ip), vehicle: saline with Tween-80 100 % of control

Cc1c([O-])[n+](Cc2ccccc2)nn1C
inactive: dose: 25.0 mg/kg/injection, schedule: Q01DX009 (ip), vehicle: water 89 % of control

C#CO[C@@H]1C[C@H](C)CCC1C(C)C (stereo partly drawn)
inactive: [6] 100 % of control | [7] 106 % of control

Cc1cn2ccccc2c[n+]1=O
inactive: dose: 5.0 mg/kg/injection, schedule: Q01DX009 (ip), vehicle: saline sonified 104 % of control | dose: 10.0 mg/kg/injection, schedule: Q01DX009 (ip), vehicle: saline sonified 90 % of control

CCOC(=O)C(Cc1ccccc1)C1(C)SCCN1C(=O)OCC (stereo not drawn)
inactive: dose: 25.0 mg/kg/injection, schedule: Q01DX005 (ip), vehicle: saline with Tween-80 101 % of control | [9] 105 % of control | [1] 100 % of control | [2] 103 % of control

CSCCC(C(=O)O)N(CCC#N)CCC#N (stereo not drawn)
inactive: dose: 50.0 mg/kg/injection, schedule: Q01DX005 (ip), vehicle: saline 98 % of control | dose: 100.0 mg/kg/injection, schedule: Q01DX005 (ip), vehicle: saline 102 % of control | dose: 200.0 mg/kg/injection, schedule: Q01DX005 (ip), vehicle: saline 100 % of control

CCB1OC2C(COC(C)=O)OC(OC(C)=O)C2O1 (stereo not drawn)
inactive: [9] 101 % of control | [1] 110 % of control | [2] 113 % of control

Reference: PubChem BioAssay AID330 (DTP/NCI, 2004)
